According to PMC8225008, “Development of Non-Ethoxypropanoic Acid Type Cryptochrome Inhibitors with Circadian Molecular Clock-Enhancing Activity by Bioisosteric Replacement” (Pharmaceuticals, 2021):

Legend:
E-box-LUC reporter = experiment: E-box-LUC luciferase reporter assay, dose-response in stably transfected NIH3T3 cells; type: cell-based; settings: Mus musculus, E-box-LUC reporter activity, NIH3T3, 36 h; for Emax: maximum response as a percentage of the vehicle-treated group, read-out: Max (%)
Protocol: Materials for cell culture were purchased from Thermo Fisher Scientific, unless otherwise stated. NIH3T3 and HEK293T cells were maintained in Dulbecco’s modified Eagle medium supplemented with 5% fetal bovine serum and 100 U/mL penicillin/streptomycin in a humidified atmosphere containing 5% CO2 at 37 °C. Plasmids and transfection experiments for luciferase reporter assay were described in our previous report. For dose-response experiments, mouse NIH3T3 cells stably transfected with an E-box-LUC reporter were plated in 12-well culture plates, treated as indicated for 36 h, and subjected to luciferase assay. For transient transfections, we seeded HEK293T cells in 12-well culture plates and used Lipofectamine® 3000 reagent to transfect cells with the E-box-LUC reporter and the indicated clock gene expression plasmids together with a thymidine kinase promoter-driven Renilla luciferase (pRL-TK) plasmids. We kept total DNA levels constant by adding an empty pcDNA3.1 plasmid. After 24 h of transfection, cells were treated with vehicle (0.1% DMSO) or chemical compounds at various concentrations for 36 h. Cell extracts were prepared by incubating cells in 0.3 mL reporter lysis buffer for 15 min at room temperature. Luciferase activity was measured with a commercial dual luciferase assay kit (Promega, Madison, WI, USA).
(§1) The EC50 values for luciferase reporter assay were calculated based on a logistic four-parametric equation using the mean values of intrinsic activation (SigmaPlot 10.0; Systat Software Inc., San Jose, CA, USA). The IC50 and t1/2 values for the cytochrome P450 inhibition assay and metabolic stability test were calculated by WinNonlin software (Pharsight, Mountain View, CA, USA). Pharmacokinetic parameters were calculated using non-compartmental analysis (WinNonlin v.8.3; Pharsight, Mountain View, CA, USA). Kinetic and equilibrium constants for SPR analysis were obtained by global fitting of the Langmuir 1:1 bimolecular kinetic model (ProteOn Manager v.3.1.0.6, Bio-Rad, Hercules, CA, USA). Circadian molecular clock-enhancing activities were expressed as means ± SE and statistically evaluated by Student’s t-test or one-way analysis of variance (ANOVA) followed by Newman–Keuls multiple comparison test for post hoc comparisons. The significance level for the analyses was set at p < 0.05.

CYP2D6 = molecular target: T1, CYP2D6 (Homo sapiens, UniProt P10635); experiment: Cytochrome P450 inhibition assay (cocktail method, human liver microsomes), dextromethorphan O-demethylation; type: in vitro ADME
T1 construct: pooled human liver microsomes (HLMs, XTreme 200, XenoTech, Lenexa, KS, USA); tissue XenoTech XTreme 200; host or cells: pooled human liver microsomes
T1 sequence (P10635 whole entry): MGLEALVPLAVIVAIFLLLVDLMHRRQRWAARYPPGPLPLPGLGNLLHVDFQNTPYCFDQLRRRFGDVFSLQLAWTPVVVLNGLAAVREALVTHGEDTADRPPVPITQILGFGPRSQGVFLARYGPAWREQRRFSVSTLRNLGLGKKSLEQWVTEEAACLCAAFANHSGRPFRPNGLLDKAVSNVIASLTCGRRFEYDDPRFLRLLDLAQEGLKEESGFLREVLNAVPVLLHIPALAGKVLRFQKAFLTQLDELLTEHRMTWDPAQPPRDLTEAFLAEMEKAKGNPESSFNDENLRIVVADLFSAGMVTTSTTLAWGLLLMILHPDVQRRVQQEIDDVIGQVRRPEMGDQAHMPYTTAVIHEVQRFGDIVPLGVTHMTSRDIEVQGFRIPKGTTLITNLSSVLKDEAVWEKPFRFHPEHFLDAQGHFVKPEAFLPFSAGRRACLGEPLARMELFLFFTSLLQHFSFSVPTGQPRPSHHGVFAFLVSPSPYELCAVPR
Protocol: (§2) The inhibitory effects of KS15 and compound 5d on the metabolism of five cytochrome P450 (P450) probe substrates were evaluated using previous methods with slight modifications. The following P450 probe substrates were used: phenacetin (100 μM) for CYP1A2, tolbutamide (100 μM) for CYP2C9, omeprazole (20 μM) for CYP2C19, dextromethorphan (5 μM) for CYP2D6, and midazolam (5 μM) for CYP3A. Incubation mixtures containing pooled human liver microsomes (HLMs, XTreme 200, XenoTech, Lenexa, KS, USA), P450 probe substrates, and KS15 or compound 5d (final concentrations: 0, 0.5, 2, 5, 20, and 50 μM) were preincubated for 5 min at 37 °C. […] After centrifugation at 18,000× g (5 min, 4 °C), supernatant aliquots were analyzed by liquid chromatography-tandem mass spectrometry (LC-MS/MS). […]
(§3) All metabolites and IS were separated on a Kinetex C18 column (100 mm × 2.1 mm, 2.6 μm ID., Phenomenex, Torrance, CA, USA) and analyzed using an LC-MS/MS system (LCMS 8060, Shimadzu, Tokyo, Japan) equipped with an electrospray ionization (ESI) interface. […]
(§4) The EC50 values for luciferase reporter assay were calculated based on a logistic four-parametric equation using the mean values of intrinsic activation (SigmaPlot 10.0; Systat Software Inc., San Jose, CA, USA). […] Pharmacokinetic parameters were calculated using non-compartmental analysis (WinNonlin v.8.3; Pharsight, Mountain View, CA, USA). […]

[1] = tested on: Per2-luciferase knock-in (Per2-Luc-KI) fibroblast cultures; experiment: Real-time bioluminescence monitoring of DEX-synchronized Per2-Luc-KI fibroblast cultures; type: cell-based, mouse; settings: 20 μM, DEX-synchronized Per2-Luc-KI fibroblasts
Protocol: For real-time bioluminescence monitoring, we used mouse embryonic fibroblast (MEF) cultures established from Per2-LUC-KI mice. […] The medium was then replaced with a recording medium containing 0.1 mM D-luciferin (Promega) along with vehicle (0.1% DMSO), KS15 (20 μM), 5d (20 μM), or 2d (20 μM). Light emission for 2 min at intervals of 20 min was integrated using a dish-type wheeled luminometer (Kronos-Dio, ATTO Cooperation, Tokyo, Japan). Background-subtracted bioluminescence profiles were analyzed using Cosinor analysis software (available at http://www.circadian.org, last accessed on 19 May 2021).
as §1

CYP2C19 = molecular target: T2, CYP2C19 (Homo sapiens, UniProt P33261); experiment: Cytochrome P450 inhibition assay (cocktail method, human liver microsomes), omeprazole hydroxylation; type: in vitro ADME
T2 construct: pooled human liver microsomes (HLMs, XTreme 200, XenoTech, Lenexa, KS, USA); tissue XenoTech XTreme 200; host or cells: pooled human liver microsomes
T2 sequence (P33261 whole entry): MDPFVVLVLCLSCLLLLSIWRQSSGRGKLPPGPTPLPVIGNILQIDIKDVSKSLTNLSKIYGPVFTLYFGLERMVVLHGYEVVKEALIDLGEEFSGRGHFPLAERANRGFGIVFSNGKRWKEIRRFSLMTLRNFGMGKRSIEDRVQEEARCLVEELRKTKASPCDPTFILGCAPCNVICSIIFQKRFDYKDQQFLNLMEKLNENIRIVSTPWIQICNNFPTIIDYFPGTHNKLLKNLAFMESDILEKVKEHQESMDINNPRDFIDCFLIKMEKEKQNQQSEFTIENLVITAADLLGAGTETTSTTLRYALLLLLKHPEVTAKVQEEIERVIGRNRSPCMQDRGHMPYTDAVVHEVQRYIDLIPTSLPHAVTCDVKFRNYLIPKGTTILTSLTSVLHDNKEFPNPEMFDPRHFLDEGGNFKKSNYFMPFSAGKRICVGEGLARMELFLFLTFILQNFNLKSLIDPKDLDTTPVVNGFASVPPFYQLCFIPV
Protocol: as §2, §3, §4

[2] = Metabolic stability test in pooled human liver microsomes; type: in vitro ADME; settings: pooled HLMs 1.0 mg/mL, 1 μM compound, NADPH generating system, read-out: t1/2 in HLMs
Protocol: The metabolic stability of KS15, 5d, or 2d was evaluated using pooled HLMs. Pooled HLMs (1.0 mg/mL), a potassium phosphate buffer, and a test compound (1 μM) were pre-incubated (37 °C, 5 min). To initiate the reaction, the NADPH generating system was added to the samples and incubated for specific time points (0, 5, 15, 20, 45, and 60 min). Then, aliquots were taken and reactions terminated in acetonitrile containing IS. After centrifugation, supernatants were analyzed using LC-MS/MS to determine KS15, 5d, or 2d concentrations in samples. Analyte separation was performed using a Kinetex C18 column (100 mm × 2.1 mm, 2.6 μm ID., Phenomenex). The mobile phase solvent A was 0.1% formic acid in water, and solvent B was 0.1% formic acid in acetonitrile. Gradient separation was performed as follows: 0–3 min (10–90% B) and 3.1–8 min (10% B). The flow rate was 0.2 mL/min, and the run time was 8 min for each sample. Electrospray ionization was conducted in positive ion mode at 4 kV. […] Quantitation was performed in the SRM of the [M+H]^+ ion and the related product ion for each test compound and IS: KS-15 (m/z 420 > 169, CE 30 eV), 5d (m/z 359 > 206, CE 20 eV), 2d (m/z 345 > 192, CE 22 eV), and IS (m/z 295 > 100, CE 17 eV).
as §1, with “Kinetic and equilibrium constants for SPR analysis were obtained by global fitting of the Langmuir 1:1 bimolecular kinetic model (ProteOn Manager v.3.1.0.6, Bio-Rad, Hercules, CA, USA).” left out, “The significance level for the analyses was set at p < 0.05.” left out

CYP3A = experiment: Cytochrome P450 inhibition assay (cocktail method, human liver microsomes), midazolam 1'-hydroxylation; type: in vitro ADME; settings: pooled human liver microsomes, probe midazolam (5 μM)
Protocol: as §2, §3, §4

CYP2C9 = molecular target: T3, CYP2C9 (Homo sapiens, UniProt P11712); experiment: Cytochrome P450 inhibition assay (cocktail method, human liver microsomes), tolbutamide 4-methylhydroxylation; type: in vitro ADME
T3 construct: pooled human liver microsomes (HLMs, XTreme 200, XenoTech, Lenexa, KS, USA); tissue XenoTech XTreme 200; host or cells: pooled human liver microsomes
T3 sequence (P11712 whole entry): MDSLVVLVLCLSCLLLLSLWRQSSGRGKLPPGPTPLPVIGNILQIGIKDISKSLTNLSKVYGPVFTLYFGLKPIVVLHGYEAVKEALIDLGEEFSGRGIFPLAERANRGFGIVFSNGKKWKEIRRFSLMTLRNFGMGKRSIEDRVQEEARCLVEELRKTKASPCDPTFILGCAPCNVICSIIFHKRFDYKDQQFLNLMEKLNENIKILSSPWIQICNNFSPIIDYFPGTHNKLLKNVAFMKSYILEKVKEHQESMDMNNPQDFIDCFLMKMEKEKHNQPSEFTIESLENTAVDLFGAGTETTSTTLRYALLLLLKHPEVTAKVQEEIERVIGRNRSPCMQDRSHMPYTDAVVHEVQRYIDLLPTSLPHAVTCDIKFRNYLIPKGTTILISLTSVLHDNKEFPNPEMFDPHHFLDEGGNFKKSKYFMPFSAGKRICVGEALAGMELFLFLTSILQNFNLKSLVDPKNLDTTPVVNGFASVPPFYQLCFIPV
Protocol: as §2, §3, §4

CYP1A2 = molecular target: T4, CYP1A2 (Homo sapiens, UniProt P05177); experiment: Cytochrome P450 inhibition assay (cocktail method, human liver microsomes), phenacetin O-deethylation; type: in vitro ADME
T4 construct: pooled human liver microsomes (HLMs, XTreme 200, XenoTech, Lenexa, KS, USA); tissue XenoTech XTreme 200; host or cells: pooled human liver microsomes
T4 sequence (P05177 1-516): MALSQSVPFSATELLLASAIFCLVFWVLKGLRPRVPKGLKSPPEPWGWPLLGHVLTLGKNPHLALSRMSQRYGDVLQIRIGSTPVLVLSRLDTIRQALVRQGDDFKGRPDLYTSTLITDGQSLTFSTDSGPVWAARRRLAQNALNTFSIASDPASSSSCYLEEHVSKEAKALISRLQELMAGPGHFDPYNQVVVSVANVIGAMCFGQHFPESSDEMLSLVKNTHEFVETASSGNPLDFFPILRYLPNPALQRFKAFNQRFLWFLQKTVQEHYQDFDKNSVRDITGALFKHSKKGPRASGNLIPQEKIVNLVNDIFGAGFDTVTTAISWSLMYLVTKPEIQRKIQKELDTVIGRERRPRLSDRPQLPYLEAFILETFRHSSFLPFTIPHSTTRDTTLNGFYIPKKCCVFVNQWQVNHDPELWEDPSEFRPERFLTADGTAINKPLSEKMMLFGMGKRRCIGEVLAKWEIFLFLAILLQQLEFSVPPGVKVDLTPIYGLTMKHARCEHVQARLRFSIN
Protocol: as §2, §3, §4

Which results are given for `C/C(=N\OCc1ccc(Br)cc1)c1cccc(OCC(=O)O)c1` [Compound 2a]?
EC50 (E-box-LUC reporter): 1.54 µM; Emax (E-box-LUC reporter): 165%

For `CC(=NOCc1cccc(C(F)(F)F)c1)c1cccc(OCC(=O)O)c1` [Compound 2b, 2-(3-(1-(((3-trifluoromethylbenzyl)oxy)imino)ethyl)phenoxy)acetic acid], which Emax (E-box-LUC reporter) is on record?
Its Emax is 131%.

Which EC50 (E-box-LUC reporter) does the source give for `COc1ccc(CON=C(C)c2cccc(OCC(=O)O)c2)cc1` [Compound 2c, 2-(3-(1-(((4-methoxybenzyl)oxy)imino)ethyl)phenoxy)acetic acid] here?
Its EC50 is 9.88 µM.

And the Emax (E-box-LUC reporter)?
The Emax was 182%.

For `CC(=NOCc1ccc(S(C)(=O)=O)cc1)c1cccc(OCC(=O)O)c1` [Compound 2e, 2-(3-(1-(((4-methylsulfonylbenzyl)oxy)imino)ethyl)phenoxy)acetic acid], which Emax (E-box-LUC reporter) is on record?
Its Emax is 98.7%.

For `COC(=O)COc1cccc(/C(C)=N/OCc2ccc(Br)cc2)c1` [Compound 5a], which Emax (E-box-LUC reporter) is on record?
Its Emax is 149%.

For `COC(=O)COc1cccc(C(C)=NOCc2cccc(C(F)(F)F)c2)c1` [Compound 5b, Methyl 2-(3-(1-(((3-trifluoromethylbenzyl)oxy)imino)ethyl)phenoxy)acetate], which Emax (E-box-LUC reporter) is on record?
The Emax was 172%.

With `COC(=O)COc1cccc(C(C)=NOCc2ccc(OC)cc2)c1` [Compound 5c, Methyl 2-(3-(1-(((4-methoxybenzyl)oxy)imino)ethyl)phenoxy)acetate] as the compound, how does the EC50 (E-box-LUC reporter) read?
The EC50 was 6.32 µM.

And the Emax (E-box-LUC reporter)?
Its Emax is 152%.

With `COC(=O)COc1cccc(C(C)=NOCc2ccc(S(C)(=O)=O)cc2)c1` [Compound 5e, Methyl 2-(3-(1-(((4-methylsulfonylbenzyl)oxy)imino)ethyl)phenoxy)acetate] as the compound, how does the Emax (E-box-LUC reporter) read?
Its Emax is 105%.

For `CCO[C@H](Cc1cccc(/C(C)=N/OCc2ccc(Br)cc2)c1)C(=O)O` [KS15, reference compound], which IC50 (CYP2D6) is on record?
The IC50 was 23.1 µM.

What about the “Amplitude of cyclic Per2 expression” value [1] of the same compound?
The value was “attenuates amplitude”.

And the “Period of the rhythm” value [1]?
The value was “did not significantly alter the period”.

And the IC50 (CYP2C19)?
Its IC50 is 20.2 µM.

And the half-life at 1 μM [2]?
The half-life at 1 μM was over 1 h.

What about the IC50 at 10 min (CYP3A) of the same compound?
The IC50 at 10 min was 24 µM.

What about the IC50 (CYP2C9) of the same compound?
Its IC50 is 9.1 µM.

And the IC50 (CYP1A2)?
Its IC50 is 14.9 µM.
